# Legend:
# [1] = (§1) The drug is tested on WLS-098 corresponding to human gut metagenome with ENA study accession number: PRJEB37062 and ENA sample accession number: ERS12561754 for biotransformation under anaerobic condition. The drug concentrations were measured over 9 timepoints collected between 0 and 24 hours of incubation by liquid-chromatography-coupled mass spectrometry (LC–MS); conditions: 2 µM
# [2] = human gut metagenome, 24 h, 2 µM
# [3] = as §1, with “Z-028” for “WLS-098”, “mouse” for “human”, “ERS12561827” for “ERS12561754”; conditions: 2 µM
# [4] = as §1, with “Z-027” for “WLS-098”, “to” for “to human gut”, “ERS12561826” for “ERS12561754”; conditions: 2 µM
# [5] = as §1, with “Z-016” for “WLS-098”, “mouse” for “human”, “ERS12561815” for “ERS12561754”; conditions: 2 µM
# [6] = human gut metagenome, 24 h, 2 µM; remark: listed apart in the source
# [7] = as §1, with “Z-030” for “WLS-098”, “mouse” for “human”, “ERS12561829” for “ERS12561754”; conditions: 2 µM
# [8] = human gut metagenome, 24 h, 2 µM; remark: listed apart in the source
# [9] = as §1, with “Z-019” for “WLS-098”, “rat” for “human”, “ERS12561818” for “ERS12561754”; conditions: 2 µM
# [10] = human gut metagenome, 24 h, 2 µM; remark: listed apart in the source
# [11] = human gut metagenome, 24 h, 2 µM; remark: listed apart in the source
# [12] = as §1, with “Z-011” for “WLS-098”, “mouse” for “human”, “ERS12561811” for “ERS12561754”; conditions: 2 µM
# [13] = as §1, with “WLS-038” for “WLS-098”, “ERS12561745” for “ERS12561754”; conditions: 2 µM
# [14] = as §1, with “WLS-240” for “WLS-098”, “ERS12561773” for “ERS12561754”; conditions: 2 µM
# [15] = human gut metagenome, 24 h, 2 µM; remark: listed apart in the source
# [16] = human gut metagenome, 24 h, 2 µM; remark: listed apart in the source
# [17] = human gut metagenome, 24 h, 2 µM; remark: listed apart in the source
# [18] = human gut metagenome, 24 h, 2 µM; remark: listed apart in the source
# [19] = as §1, with “Z-010” for “WLS-098”, “to” for “to human gut”, “ERS12561810” for “ERS12561754”; conditions: 2 µM
# [20] = as §1, with “Z-004” for “WLS-098”, “to” for “to human gut”, “ERS12561804” for “ERS12561754”; conditions: 2 µM
# Further: call rule not given here.
SMILES,Bacterial Biotransformation [1],Bacterial Biotransformation [2],Bacterial Biotransformation [3],Bacterial Biotransformation [4],Bacterial Biotransformation [5],Bacterial Biotransformation [6],Bacterial Biotransformation [7],Bacterial Biotransformation [8],Bacterial Biotransformation [9],Bacterial Biotransformation [10],Bacterial Biotransformation [11],Bacterial Biotransformation [12],Bacterial Biotransformation [13],Bacterial Biotransformation [14],Bacterial Biotransformation [15],Bacterial Biotransformation [16],Bacterial Biotransformation [17],Bacterial Biotransformation [18],Bacterial Biotransformation [19],Bacterial Biotransformation [20]
Clc1cccc(Cl)c1N=C1NCCN1 [CLONIDINE],Compound metabolized,Compound NOT metabolized,Compound NOT metabolized,Compound NOT metabolized,Compound NOT metabolized,Compound metabolized,Compound NOT metabolized,Compound metabolized,Compound NOT metabolized,Compound NOT metabolized,Compound metabolized,Compound metabolized,Compound NOT metabolized,Compound metabolized,Compound NOT metabolized,Compound metabolized,Compound NOT metabolized,Compound metabolized,Compound metabolized,Compound metabolized
COC(=O)[C@H](c1ccccc1Cl)N1CCc2sccc2C1.O=S(=O)(O)O [CLOPIDOGREL BISULFATE],Compound metabolized,Compound metabolized,Compound NOT metabolized,Compound metabolized,Compound metabolized,Compound metabolized,Compound NOT metabolized,Compound metabolized,Compound NOT metabolized,Compound metabolized,Compound metabolized,Compound metabolized,Compound metabolized,Compound metabolized,Compound metabolized,Compound metabolized,Compound metabolized,Compound metabolized,Compound metabolized,Compound metabolized
O=P1(N(CCCl)CCCl)NCCCO1 (stereo not given) [CYCLOPHOSPHAMIDE ANHYDROUS],Compound metabolized,Compound NOT metabolized,Compound NOT metabolized,Compound NOT metabolized,Compound NOT metabolized,Compound metabolized,Compound NOT metabolized,Compound metabolized,Compound NOT metabolized,Compound NOT metabolized,Compound metabolized,Compound NOT metabolized,Compound NOT metabolized,Compound metabolized,Compound NOT metabolized,Compound metabolized,Compound NOT metabolized,Compound NOT metabolized,Compound NOT metabolized,Compound metabolized
Br.COc1ccc2c(c1)[C@]13CCCC[C@@H]1[C@H](C2)N(C)CC3.O [DEXTROMETHORPHAN HYDROBROMIDE],Compound metabolized,Compound NOT metabolized,Compound NOT metabolized,Compound NOT metabolized,Compound NOT metabolized,Compound metabolized,Compound NOT metabolized,Compound NOT metabolized,Compound NOT metabolized,Compound NOT metabolized,Compound metabolized,Compound NOT metabolized,Compound NOT metabolized,Compound metabolized,Compound NOT metabolized,Compound metabolized,Compound NOT metabolized,Compound metabolized,Compound metabolized,Compound metabolized
CC(=O)Nc1ccc(OC(C)=O)cc1 [DIACETAMATE],Compound metabolized,Compound metabolized,Compound metabolized,Compound metabolized,Compound metabolized,Compound metabolized,Compound metabolized,Compound metabolized,Compound metabolized,Compound metabolized,Compound metabolized,Compound metabolized,Compound metabolized,Compound metabolized,Compound metabolized,Compound metabolized,Compound metabolized,Compound metabolized,Compound metabolized,Compound metabolized
CCN(CC)CCOC(=O)C1(C2CCCCC2)CCCCC1 [DICYCLOMINE],Compound NOT metabolized,Compound metabolized,Compound NOT metabolized,Compound NOT metabolized,Compound NOT metabolized,Compound metabolized,Compound NOT metabolized,Compound metabolized,Compound NOT metabolized,Compound NOT metabolized,Compound metabolized,Compound NOT metabolized,Compound NOT metabolized,Compound NOT metabolized,Compound NOT metabolized,Compound metabolized,Compound metabolized,Compound NOT metabolized,Compound metabolized,Compound NOT metabolized
COc1ccc([C@@H]2Sc3ccccc3N(CCN(C)C)C(=O)[C@@H]2OC(C)=O)cc1 [DILTIAZEM],Compound metabolized,Compound metabolized,Compound metabolized,Compound NOT metabolized,Compound metabolized,Compound metabolized,Compound NOT metabolized,Compound metabolized,Compound NOT metabolized,Compound metabolized,Compound metabolized,Compound NOT metabolized,Compound NOT metabolized,Compound metabolized,Compound metabolized,Compound metabolized,Compound NOT metabolized,Compound metabolized,Compound metabolized,Compound metabolized
OCCN(CCO)c1nc(N2CCCCC2)c2nc(N(CCO)CCO)nc(N3CCCCC3)c2n1 [DIPYRIDAMOLE],Compound metabolized,Compound NOT metabolized,Compound NOT metabolized,Compound metabolized,Compound NOT metabolized,Compound NOT metabolized,Compound NOT metabolized,Compound metabolized,Compound NOT metabolized,Compound metabolized,Compound metabolized,Compound NOT metabolized,Compound NOT metabolized,Compound metabolized,Compound metabolized,Compound metabolized,Compound NOT metabolized,Compound NOT metabolized,Compound metabolized,Compound NOT metabolized

# Reference: ChEMBL document CHEMBL5724914, “Linking interpersonal differences in gut microbiota composition and drug biotransformation activity” (2024)
